Reference: patent publication EP4678638A1, “NEW E3 UBIQUITIN LIGASE LIGAND, PROTEIN DEGRADATION AGENT AND USE THEREOF” (priority 2023, dated 2024)
pIC50: −log10 of the molar value.

How the values were obtained:
[1] = tested on: MM.1R; assay: CCK-8 proliferation, MM.1R; assay type: cell-based; settings: CCK-8, 72 hours, read-out: Inhibitory activity (IC50) on tumor cell proliferation, MM.1R
Experimental: (§1) The tumor cells used herein were cultured in a cell culture medium listed in table A1 at 37°C in an incubator with 5% CO2. Prior to experimentation, all cell lines used were correctly identified by STR profiling, and tested negative for mycoplasma contamination using a mycoplasma detection kit through routine screenings. Table A1. Tumor cells and cell culture medium used in the present disclosure
(§2) IC50 values of the compounds of the present disclosure (including the compounds in Table 1, and compounds of examples) were measured using the Meilun Cell Counting Kit-8 kit from Dalian Meilun Biotech Co., Ltd. Assay details are as follows: tumor cells were seeded in a 96-well plate at a density listed in Table A2. After 24h, 100 µL of the inoculated cells were treated with 0.5µL of the compounds of the present disclosure (including the compounds in Tables 1 and 2, and compounds of examples) at 10 different successively decreasing concentrations (starting at the highest concentration of 10µM; 5-fold serial dilutions). After the cells were treated with the compounds of the present disclosure for a period of time, the cell viability detection reagent was added to the culture medium for cell viability assessment according to the instructions provided with the CCK-8 kit. […] The growth inhibition of the compounds of the present disclosure on cells was plotted by Prism Graphpad software, and the IC50 values of the compounds of the present disclosure were calculated therefrom. […] Seeding protocol and treatment time for tumor cells

[2] = tested on: EGFR; assay: Western blot degradation of EGFR (H1975 Cell); assay type: cell-based, Human; settings: Table D2
In short: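 Quantification by ImageJ densitometry of Western blot bands: DC50 is the fitted concentration halving band intensity relative to DMSO. Percent remaining uses internal-control normalization, and degradation rate is its complement.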

[3] = tested on: H1975-1µM Osimertinib cells; assay: CCK-8 proliferation, osimertinib-resistant H1975 cells; assay type: cell-based, Human; settings: Homo sapiens, NCI-H1975; CCK-8; osimertinib-resistant H1975 cells obtained by treating H1975 cells with 1 µM Osimertinib for 3 months; read-out: Inhibitory activity (IC50) on tumor cell proliferation, H1975-1µm Osimertinib
Experimental: as §1, §2

[4] = tested on: PC-9; assay: CCK-8 proliferation, PC-9; assay type: cell-based, Human; settings: Homo sapiens, PC-9; CCK-8; 96 hours; read-out: Inhibitory activity (IC50) on tumor cell proliferation, PC-9
In short: (§3)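 Cells seeded, then after 24 h treated with 10 concentrations (top 10 µM, 5-fold serial dilution) for a line-specific time at 37°C, 5% CO2. Viability read by CCK-8; IC50 fitted from growth-inhibition curves.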

[5] = tested on: HCC827; assay: CCK-8 proliferation, HCC827; assay type: cell-based, Human; settings: Homo sapiens, HCC827; CCK-8; 96 hours; read-out: Inhibitory activity (IC50) on tumor cell proliferation, HCC827
In short: as §3

[6] = tested on: H1975; assay: CCK-8 proliferation, NCI-H1975 (H1975); assay type: cell-based, Human; settings: Homo sapiens, NCI-H1975; CCK-8; 96 hours; read-out: Inhibitory activity (IC50) on tumor cell proliferation, H1975
In short: as §3

[7] = tested on: H2228; assay: CCK-8 proliferation, NCI-H2228 (H2228); assay type: cell-based; settings: Homo sapiens, NCI-H2228; CCK-8; 96 hours; read-out: Inhibitory activity (IC50) on tumor cell proliferation, H2228
In short: as §3

[8] = tested on: SW620; assay: CCK-8 proliferation, SW620; assay type: cell-based; settings: Homo sapiens, SW-620; CCK-8; 96 hours; read-out: Inhibitory activity (IC50) on tumor cell proliferation, SW620
In short: as §3

Row | pIC50 [1] | pIC50 [3] | pIC50 [4] | pIC50 [5] | pIC50 [6] | pIC50 [7] | pIC50 [8] | SMILES | Degradation of substrate protein EGFR (substrate protein remaining %) [2]
1 | 6.00 to 6.30 | – | – | – | – | – | – | CN(Cc1ccc(C2CCC(=O)NC2=O)cc1)C1CCN(c2ccc(C(N)=O)c(-c3ccc(Oc4ccccc4)cc3)n2)CC1 (stereo not drawn) [GT-03828, 6-(4-((4-(2,6-dioxopiperidin-3-yl)benzyl)(methyl)amino)piperidin-1-yl)-2-(4-phenoxyphenyl)nicotinamide] | –
2 | – | 6.30 to 7.00 | 6.30 to 7.00 | 6.30 to 7.00 | 6.30 to 7.00 | – | – | COc1cc(N2CCN(Cc3cccc(N4CCC(=O)NC4=O)c3)CC2)c(C)cc1Nc1ncc(Br)c(Nc2ccc3nccnc3c2P(C)(C)=O)n1 [GT-04206, 1-(3-((4-(4-((5-bromo-4-((5-(dimethylphosphoryl)quinoxalin-6-yl)amino)pyrimidin-2-yl)amino)-5-methoxy-2-methylphenyl)piperazin-1-yl)methyl)phenyl)dihydropyrimidine-2,4(1H,3H)-dione] | A (A is defined as 0% ≤ substrate protein remaining % ≤ 80%)
3 | – | 6.30 to 7.00 | 7.00 to 7.30 | 6.30 to 7.00 | 7.30 to 8.00 | – | – | COc1cc(N2CCC(N(C)Cc3cccc(N4CCC(=O)NC4=O)c3)CC2)c(C)cc1Nc1ncc(Br)c(Nc2ccc3nccnc3c2P(C)(C)=O)n1 [GT-04214, 1-(3-(((1-(4-((5-bromo-4-((5-(dimethylphosphoryl)quinoxalin-6-yl)amino)pyrimidin-2-yl)amino)-5-methoxy-2-methylphenyl)piperidin-4-yl)(methyl)amino)methyl)phenyl)dihydropyrimidine-2,4(1H,3H)-dione] | A (A is defined as 0% ≤ substrate protein remaining % ≤ 80%)
4 | – | 6.30 to 7.00 | 7.00 to 7.30 | 7.00 to 7.30 | 7.00 to 7.30 | – | – | COc1cc(N2CCC(N3CCN(Cc4cccc(N5CCC(=O)NC5=O)c4)CC3)CC2)c(C)cc1Nc1ncc(Br)c(Nc2ccc3nccnc3c2P(C)(C)=O)n1 [GT-04260, 1-(3-((4-(1-(4-((5-bromo-4-((5-(dimethylphosphoryl)quinoxalin-6-yl)amino)pyrimidin-2-yl)amino)-5-methoxy-2-methylphenyl)piperidin-4-yl)piperazin-1-yl)methyl)phenyl)dihydropyrimidine-2,4(1H,3H)-dione] | A (A is defined as 0% ≤ substrate protein remaining % ≤ 80%)
5 | 6.30 to 7.00 | – | 6.30 to 7.00 | – | 6.00 to 6.30 | 6.30 to 7.00 | 6.00 to 6.30 | NC(=O)c1ncc(N2CCCCC2)nc1Nc1ccc(C2CCN(Cc3ccc(C4CCC(=O)NC4=O)cc3)CC2)cc1 (stereo not drawn) [GT-04785, 3-((4-(1-(4-(2,6-dioxopiperidin-3-yl)benzyl)piperidin-4-yl)phenyl)amino)-5-(piperidin-1-yl)pyrazine-2-carboxamide] | –
6 | 6.00 to 6.30 | – | 6.30 to 7.00 | – | 6.00 to 6.30 | 6.30 to 7.00 | – | NC(=O)c1ncc(N2CCCCC2)nc1Nc1ccc(C2CCN(Cc3cccc(N4CCC(=O)NC4=O)c3)CC2)cc1 [GT-04787, 3-((4-(1-(3-(2,4-dioxotetrahydropyrimidin-1(2H)-yl)benzyl)piperidin-4-yl)phenyl)amino)-5-(piperidin-1-yl)pyrazine-2-carboxamide] | –
7 | > 9.00 | – | 6.00 to 6.30 | – | – | 6.30 to 7.00 | 6.00 to 6.30 | NC(=O)c1ncc(N2CCCCC2)nc1Nc1ccc(C2CCN(Cc3cccc(NC4CCC(=O)NC4=O)c3)CC2)cc1 (stereo not drawn) [GT-04791, 3-((4-(1-(3-((2,6-dioxopiperidin-3-yl)amino)benzyl)piperidin-4-yl)phenyl)amino)-5-(piperidin-1-yl)pyrazine-2-carboxamide] | –
8 | 6.00 to 6.30 | – | 6.30 to 7.00 | – | – | 6.00 to 6.30 | – | CN1CCN([C@@H]2CCCN(c3cnc(C(N)=O)c(Nc4ccc(C5CCN(Cc6cccc(N7CCC(=O)NC7=O)c6)CC5)cc4)n3)C2)C1=O [GT-04800, (R)-3-((4-(1-(3-(2,4-dioxotetrahydropyrimidin-1(2H)-yl)benzyl)piperidin-4-yl)phenyl)amino)-5-(3-(3-methyl-2-oxoimidazolidin-1-yl)piperidin-1-yl)pyrazine-2-carboxamide] | –
9 | 6.30 to 7.00 | – | 6.30 to 7.00 | – | 6.00 to 6.30 | 6.30 to 7.00 | – | CN1CCN([C@@H]2CCCN(c3cnc(C(N)=O)c(Nc4ccc(C5CCN(Cc6ccc(N7CCC(=O)NC7=O)cc6)CC5)cc4)n3)C2)C1=O [GT-04802, (R)-3-((4-(1-(4-(2,4-dioxotetrahydropyrimidin-1(2H)-yl)benzyl)piperidin-4-yl)phenyl)amino)-5-(3-(3-methyl-2-oxoimidazolidin-1-yl)piperidin-1-yl)pyrazine-2-carboxamide] | –
10 | 6.30 to 7.00 | – | 6.30 to 7.00 | – | 6.00 to 6.30 | 6.30 to 7.00 | 6.30 to 7.00 | CN1CCN([C@@H]2CCCN(c3cnc(C(N)=O)c(Nc4ccc(C5CCN(Cc6ccc(N7CCC(=O)NC7=O)cc6F)CC5)cc4)n3)C2)C1=O [GT-04803, (R)-3-((4-(1-(4-(2,4-dioxotetrahydropyrimidin-1(2H)-yl)-2-fluorobenzyl)piperidin-4-yl)phenyl)amino)-5-(3-(3-methyl-2-oxoimidazolidin-1-yl)piperidin-1-yl)pyrazine-2-carboxamide] | –
11 | – | 6.00 to 6.30 | 8.00 to 9.00 | 8.00 to 9.00 | 7.00 to 7.30 | – | – | O=C1CCC(c2ccc(CN3CCN(C4CCN(c5ccc(Nc6ncc7nc(Nc8ccccc8)n(C8CCCC8)c7n6)cc5)CC4)CC3)cc2)C(=O)N1 (stereo not drawn) [GT-05915, 3-(4-((4-(1-(4-((9-cyclopentyl-8-(phenylamino)-9H-purin-2-yl)amino)phenyl)piperidin-4-yl)piperazin-1-yl)methyl)phenyl)piperidine-2,6-dione] | A (A is defined as 0% ≤ substrate protein remaining % ≤ 80%)
12 | – | 6.00 to 6.30 | 8.00 to 9.00 | 8.00 to 9.00 | 6.30 to 7.00 | – | – | O=C1CCN(c2ccc(CN3CCN(C4CCN(c5ccc(Nc6ncc7nc(Nc8ccccc8)n(C8CCCC8)c7n6)cc5)CC4)CC3)cc2)C(=O)N1 [GT-05917, 1-(4-((4-(1-(4-((9-cyclopentyl-8-(phenylamino)-9H-purin-2-yl)amino)phenyl)piperidin-4-yl)piperazin-1-yl)methyl)phenyl)dihydropyrimidine-2,4(1H,3H)-dione] | A (A is defined as 0% ≤ substrate protein remaining % ≤ 80%)
13 | – | 6.30 to 7.00 | 7.00 to 7.30 | 6.30 to 7.00 | 6.30 to 7.00 | – | – | COc1cc(N2CCN(Cc3ccc(N4CCC(=O)NC4=O)nc3)CC2)c(C)cc1Nc1ncc(Br)c(Nc2ccc3nccnc3c2P(C)(C)=O)n1 [GT-05947, 1-(5-((4-(4-((5-bromo-4-((5-(dimethylphosphoryl)quinoxalin-6-yl)amino)pyrimidin-2-yl)amino)-5-methoxy-2-methylphenyl)piperazin-1-yl)methyl)pyridin-2-yl)dihydropyrimidine-2,4(1H,3H)-dione] | A (A is defined as 0% ≤ substrate protein remaining % ≤ 80%)
14 | – | 6.00 to 6.30 | 6.30 to 7.00 | 6.30 to 7.00 | – | – | – | CC(C)n1nc(N2CCC(N(C)Cc3ccc(N4CCC(=O)NC4=O)cc3)CC2)c2cnc(Nc3ccnc(-c4cnn(S(=O)(=O)C5CC5)c4)n3)cc21 [GT-06021, 1-(4-(((1-(6-((2-(1-(cyclopropylsulfonyl)-1H-pyrazol-4-yl)pyrimidin-4-yl)amino)-1-isopropyl-1H-pyrazolo[4,3-c]pyridin-3-yl)piperidin-4-yl)(methyl)amino)methyl)phenyl)dihydropyrimidine-2,4(1H,3H)-dione] | A (A is defined as 0% ≤ substrate protein remaining % ≤ 80%)
